Assay results published in ChEMBL document CHEMBL1201862, “PubChem BioAssay data set” (2004).
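In this assay, cells in 96-well plates receive the compound at five concentrations for 48 hours. Endpoints are linearly interpolated between the surrounding concentrations. GI50: concentration for 50% inhibition of growth.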 The source made the active and inactive calls. Cut-off read from the data, not from the text of the source: active = GI50 up to about 1.1 µM and inactive = higher. Where a SMILES comes first, the peptide text is derived from it. The star is where a group is joined. Fmoc = O=C(OCC1c2ccccc2-c2ccccc21)*; Boc = CC(C)(C)OC(=O)*

Legend:
Assay in all cases: growth of human tumour cells (NCI), 48 h
[1] = tested on: A549
[2] = tested on: ACHN
[3] = tested on: CCRF-CEM
[4] = tested on: DU-145
[5] = tested on: HL-60
[6] = tested on: HOP-92
[7] = tested on: HT-29
[8] = tested on: K562
[9] = tested on: MCF7
[10] = tested on: MDA-MB-435
[11] = tested on: NCI-H226
[12] = tested on: NCI/ADR-RES
[13] = tested on: OVCAR-3
[14] = tested on: OVCAR-4
[15] = tested on: OVCAR-8
[16] = tested on: SF-295
[17] = tested on: SK-MEL-2
[18] = tested on: SNB-19
[19] = tested on: TK-10
[20] = tested on: UO-31

Row | SMILES | GI50 [1] | GI50 [2] | GI50 [3] | GI50 [4] | GI50 [5] | GI50 [6] | GI50 [7] | GI50 [8] | GI50 [9] | GI50 [10] | GI50 [11] | GI50 [12] | GI50 [13] | GI50 [14] | GI50 [15] | GI50 [16] | GI50 [17] | GI50 [18] | GI50 [19] | GI50 [20]
1 | COc1ccc(/C=C/C(=O)N[C@@H]2C(=O)N3[C@@H]2SC(C)(C)[C@@H]3C(=O)O)cc1OC | > 100 µM (inactive) | > 100 µM (inactive) | > 100 µM (inactive) | > 100 µM (inactive) | > 100 µM (inactive) | > 100 µM (inactive) | > 100 µM (inactive) | > 100 µM (inactive) | > 100 µM (inactive) | > 100 µM (inactive) | > 100 µM (inactive) | > 100 µM (inactive) | > 100 µM (inactive) | > 100 µM (inactive) | > 100 µM (inactive) | > 100 µM (inactive) | > 100 µM (inactive) | > 100 µM (inactive) | > 100 µM (inactive) | > 100 µM (inactive)
2 | CCCCCCSCC/C(C)=N\OC | > 100 µM (inactive) | > 100 µM (inactive) | > 100 µM (inactive) | > 100 µM (inactive) | 45.3 µM (inactive) | > 100 µM (inactive) | > 100 µM (inactive) | > 100 µM (inactive) | > 100 µM (inactive) | > 100 µM (inactive) | > 100 µM (inactive) | > 100 µM (inactive) | > 100 µM (inactive) | > 100 µM (inactive) | > 100 µM (inactive) | > 100 µM (inactive) | > 100 µM (inactive) | > 100 µM (inactive) | > 100 µM (inactive) | > 100 µM (inactive)
3 | CC(C)C1/C(=N/O)CC(c2ccccc2)N(N=O)C1c1ccccc1 (stereo not given) | 30.1 µM (inactive) | 36.4 µM (inactive) | 26.9 µM (inactive) | 34 µM (inactive) | 32.1 µM (inactive) | 33.7 µM (inactive) | 21.2 µM (inactive) | 35.5 µM (inactive) | 32.4 µM (inactive) | 26.7 µM (inactive) | 37.1 µM (inactive) | 35.1 µM (inactive) | 36.8 µM (inactive) | 22.8 µM (inactive) | 57 µM (inactive) | 30.5 µM (inactive) | 24.5 µM (inactive) | > 100 µM (inactive) | 62.2 µM (inactive) | 33.3 µM (inactive)
4 | CCOC(=O)COC1=Nc2cc(OC)c(OC)c3nc(Cl)cc(c23)C1=O | 6.18 µM (inactive) | 1.66 µM (inactive) | 0.299 µM (active) | 1.82 µM (inactive) | 0.252 µM (active) | 1.7 µM (inactive) | 2.29 µM (inactive) | 1.2 µM (inactive) | 1.7 µM (inactive) | 1.4 µM (inactive) | 11.1 µM (inactive) | 2.97 µM (inactive) | 1.75 µM (inactive) | 1.67 µM (inactive) | 2.43 µM (inactive) | 10 µM (inactive) | 2 µM (inactive) | 6.08 µM (inactive) | 1.96 µM (inactive) | 1.84 µM (inactive)
5 | CCN1C(=O)C(=C/C=C/c2ccc([N+](=O)[O-])cc2)C(=O)N(CC)C1=S | > 100 µM (inactive) | 18.1 µM (inactive) | 31.8 µM (inactive) | 17.6 µM (inactive) | 82.6 µM (inactive) | 18.3 µM (inactive) | 19.7 µM (inactive) | 20.1 µM (inactive) | 23.6 µM (inactive) | 23.4 µM (inactive) | 25.4 µM (inactive) | 19.5 µM (inactive) | 17.8 µM (inactive) | 33 µM (inactive) | 20.9 µM (inactive) | > 100 µM (inactive) | 23.8 µM (inactive) | 37.9 µM (inactive) | 19.4 µM (inactive) | 18.8 µM (inactive)
6 | O=C(CC1C(=O)Nc2ccccc2[S+]1[O-])Nc1cccc(Cl)c1 (stereo not given) | > 100 µM (inactive) | 33.7 µM (inactive) | > 35.4 µM (inactive) | 32.5 µM (inactive) | > 33.5 µM (inactive) | 19.5 µM (inactive) | > 35.6 µM (inactive) | 6.61 µM (inactive) | 13.8 µM (inactive) | 27.9 µM (inactive) | 44.3 µM (inactive) | 18.5 µM (inactive) | 32.7 µM (inactive) | > 53.8 µM (inactive) | 33 µM (inactive) | 41.9 µM (inactive) | 55.5 µM (inactive) | 30.5 µM (inactive) | > 58.9 µM (inactive) | 25.1 µM (inactive)
7 | CC(=O)NC1C(OC2C(CO)OC(OCC3OC(n4ccc(N)nc4=O)C(O)C3O)C(NC(C)=O)C2O)OC(CO)C(O)C1O (stereo not given) | > 100 µM (inactive) | 99.8 µM (inactive) | 12.1 µM (inactive) | > 100 µM (inactive) | > 34.6 µM (inactive) | > 100 µM (inactive) | > 100 µM (inactive) | > 100 µM (inactive) | > 94.6 µM (inactive) | > 100 µM (inactive) | > 100 µM (inactive) | > 100 µM (inactive) | > 100 µM (inactive) | > 100 µM (inactive) | > 91.2 µM (inactive) | > 100 µM (inactive) | > 100 µM (inactive) | > 100 µM (inactive) | > 100 µM (inactive) | > 100 µM (inactive)
8 | CC(C)(C)OC(=O)NCCCCC(NC(=O)C(Cc1c[nH]c2ccccc12)NC(=O)OCC1c2ccccc2-c2ccccc21)C(=O)O (stereo not given) (Fmoc-Trp-Lys(Boc)-OH; configuration not given here) | > 100 µM (inactive) | > 100 µM (inactive) | 24.7 µM (inactive) | 76.4 µM (inactive) | 15.5 µM (inactive) | 23.8 µM (inactive) | 40.5 µM (inactive) | 18.8 µM (inactive) | 22.9 µM (inactive) | 49.5 µM (inactive) | 43.7 µM (inactive) | > 100 µM (inactive) | 18.2 µM (inactive) | 33.7 µM (inactive) | 44.4 µM (inactive) | 62.7 µM (inactive) | 23.1 µM (inactive) | 27.3 µM (inactive) | > 100 µM (inactive) | 68.7 µM (inactive)
9 | COC(O)C12OC3CO[Si](C(C)C)(C(C)C)O[Si](C(C)C)(C(C)C)OC3C1Oc1nc(=O)ccn12 (stereo not given) | 12.6 µM (inactive) | 14.1 µM (inactive) | 4.5 µM (inactive) | 16.3 µM (inactive) | 3.29 µM (inactive) | 10.1 µM (inactive) | 6.73 µM (inactive) | 1.52 µM (inactive) | 10.5 µM (inactive) | 12.3 µM (inactive) | 17.7 µM (inactive) | 21.6 µM (inactive) | 11.3 µM (inactive) | 14.2 µM (inactive) | 11.2 µM (inactive) | 12.2 µM (inactive) | 12 µM (inactive) | 14.4 µM (inactive) | 14.3 µM (inactive) | 15.8 µM (inactive)
10 | CCOP(=O)(OCC)/C(C#N)=C/c1ccc(-c2ccc(F)cc2F)o1 | 15.3 µM (inactive) | 13.3 µM (inactive) | 14.6 µM (inactive) | 27.2 µM (inactive) | 12.3 µM (inactive) | 15.2 µM (inactive) | 16.5 µM (inactive) | 12.2 µM (inactive) | 19.7 µM (inactive) | 12.6 µM (inactive) | 16.5 µM (inactive) | 22.1 µM (inactive) | 14.9 µM (inactive) | 18.2 µM (inactive) | 15.2 µM (inactive) | 16.4 µM (inactive) | 23.5 µM (inactive) | 16.9 µM (inactive) | 12.6 µM (inactive) | 13.1 µM (inactive)
11 | O=C1c2cccc3cccc(c23)C(=O)N1CCCNCCCCNCCCN1C(=O)c2cccc3cccc(c23)C1=O | 0.0495 µM (active) | 0.757 µM (active) | < 0.01 µM (active) | 0.0887 µM (active) | 0.32 µM (active) | 0.18 µM (active) | 0.0315 µM (active) | 0.0226 µM (active) | < 0.0138 µM (active) | 0.159 µM (active) | 0.748 µM (active) | 14.5 µM (inactive) | 0.2 µM (active) | 0.2 µM (active) | 0.177 µM (active) | 0.658 µM (active) | 0.521 µM (active) | 0.124 µM (active) | 1.57 µM (inactive) | 2.26 µM (inactive)
12 | CC(=O)Oc1c(-c2ccccc2)sc2ccccc12 | 20.6 µM (inactive) | 15.6 µM (inactive) | 18 µM (inactive) | 14.1 µM (inactive) | 18 µM (inactive) | 15.1 µM (inactive) | 20.3 µM (inactive) | 13.9 µM (inactive) | 27.6 µM (inactive) | 25 µM (inactive) | 13.3 µM (inactive) | 18.2 µM (inactive) | > 10 µM (inactive) | 23 µM (inactive) | 27.2 µM (inactive) | 18.6 µM (inactive) | 13.3 µM (inactive) | 34.4 µM (inactive) | 22.6 µM (inactive) | 16.8 µM (inactive)
13 | CSC1=N/C(=C\c2ccccc2)C(=O)N1CN1CCOCC1 | > 100 µM (inactive) | 38.9 µM (inactive) | 36 µM (inactive) | 96.2 µM (inactive) | 54.6 µM (inactive) | > 100 µM (inactive) | 30.8 µM (inactive) | 41.9 µM (inactive) | 28.3 µM (inactive) | 93.8 µM (inactive) | 41.6 µM (inactive) | 17.1 µM (inactive) | > 100 µM (inactive) | 28.2 µM (inactive) | 41.1 µM (inactive) | > 100 µM (inactive) | > 100 µM (inactive) | 52.5 µM (inactive) | > 100 µM (inactive) | 38.3 µM (inactive)
14 | O=C(O)c1ccccc1-c1ccccc1C(=O)c1ccccc1 | > 100 µM (inactive) | > 100 µM (inactive) | > 100 µM (inactive) | > 100 µM (inactive) | > 100 µM (inactive) | 51.6 µM (inactive) | > 100 µM (inactive) | > 100 µM (inactive) | > 100 µM (inactive) | > 100 µM (inactive) | > 100 µM (inactive) | > 100 µM (inactive) | > 100 µM (inactive) | > 100 µM (inactive) | > 100 µM (inactive) | > 100 µM (inactive) | > 100 µM (inactive) | > 100 µM (inactive) | > 100 µM (inactive) | > 100 µM (inactive)
